Reference: patent publication US10028961B2, “Therapeutically active compounds and their methods of use” (AGIOS PHARMACEUTICALS, INC., priority 2013, dated 2018)
pIC50: −log10 of the molar value.

Legend:
[1] = target: IDH1 wt/IDH1 R132H heterodimer (Homo sapiens (Human), UniProt O75874, R132H); test: In vitro assay for IDH1m R132H inhibitors, IDH1 wt/IDH1 R132H heterodimer, NADPH depletion (diaphorase/resazurin); assay type: biochemical; settings: IDH1 wt/R132H heterodimer, NADPH/NADP, not saturated; read-out: IDH1 wt/R132H NADPH/NADP IC50 not saturated
Sequence of IDH1 wt/IDH1 R132H heterodimer (O75874 whole entry R132H): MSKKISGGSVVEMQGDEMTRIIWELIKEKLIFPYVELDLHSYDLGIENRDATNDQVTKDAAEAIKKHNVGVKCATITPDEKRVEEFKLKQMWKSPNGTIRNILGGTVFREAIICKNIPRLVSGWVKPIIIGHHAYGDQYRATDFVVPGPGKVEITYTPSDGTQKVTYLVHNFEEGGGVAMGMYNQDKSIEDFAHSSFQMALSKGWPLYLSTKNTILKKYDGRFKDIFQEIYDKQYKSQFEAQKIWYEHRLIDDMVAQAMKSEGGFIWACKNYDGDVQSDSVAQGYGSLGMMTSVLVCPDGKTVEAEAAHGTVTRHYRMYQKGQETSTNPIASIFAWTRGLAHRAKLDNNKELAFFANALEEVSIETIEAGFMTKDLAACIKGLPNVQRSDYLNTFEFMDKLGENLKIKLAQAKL
Sequence of IDH1 wt/IDH1 R132H heterodimer (O75874 whole entry, stated change not applied): as the sequence (O75874 whole entry R132H) above, with H132R counted along it
Method in brief: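 Purified IDH1wt-his/IDH1R132H-flag heterodimer (sf9 co-expression) pre-incubated 1 hr at room temperature with compound and NADPH before α-KG addition. Remaining NADPH read by diaphorase/resazurin conversion to fluorescent resorufin, 5 min at 25° C. Compounds diluted 1:50 from DMSO; IC50 determined.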

[2] = target: IDH1-R132H homodimer enzyme (Homo sapiens (Human), UniProt O75874, R132H); test: In vitro assay IDH1-R132H homodimer, NADPH depletion assay with NADPH/NADP preincubation; assay type: biochemical; settings: 5 μM NADPH and 37.5 μM NADP
Sequence of IDH1-R132H homodimer enzyme (O75874 whole entry R132H): as the sequence (O75874 whole entry R132H) above
Method in brief: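 Conversion of alpha-ketoglutarate to 2-hydroxyglutarate tracked by NADPH depletion. Reaction started with 5 mM alpha-ketoglutarate plus NADPH substrate mix (50 μl total), 60 min at room temperature. Leftover NADPH quantified via diaphorase/resazurin fluorescence.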

IDH2 R140Q [3] = target: T1, IDH2 R140Q (Homo sapiens (Human), UniProt P48735, R140Q); test: In vitro assay for IDH2m R140Q inhibitors, cofactor depletion assay, 16 hr preincubation with NADPH/NADP; assay type: biochemical; settings: read-out: IDH2 R140Q 16 hr NADPH/NADP IC50; 16 hrs preincubation with enzyme, 5 uM NADPH and 750 uM NADP
T1 sequence (P48735 40-452 R140Q): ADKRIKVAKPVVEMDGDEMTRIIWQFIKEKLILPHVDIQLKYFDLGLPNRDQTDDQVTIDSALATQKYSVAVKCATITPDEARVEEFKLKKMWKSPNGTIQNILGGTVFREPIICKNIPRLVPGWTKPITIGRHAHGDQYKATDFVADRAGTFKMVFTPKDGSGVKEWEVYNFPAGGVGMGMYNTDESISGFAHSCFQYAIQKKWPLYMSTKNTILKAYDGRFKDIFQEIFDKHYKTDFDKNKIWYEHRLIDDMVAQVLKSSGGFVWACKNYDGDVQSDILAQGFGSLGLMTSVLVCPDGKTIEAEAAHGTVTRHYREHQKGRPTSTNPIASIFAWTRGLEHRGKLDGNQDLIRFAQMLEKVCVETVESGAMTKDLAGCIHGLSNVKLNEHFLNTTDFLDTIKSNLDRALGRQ
Text: The following describes the experimental procedures used to obtain data on column 6 of Table 5.
The reaction is terminated by the addition of a second enzyme, diaphorase, and a corresponding substrate, resazurin. Diaphorase reduces resazurin to the highly fluorescent resorufin with the concomitant oxidation of NADPH to NADP, both halting the IDH2 reaction by depleting the available cofactor pool and facilitating quantitation of the amount of cofactor remaining after a specific time period through quantitative production of an easily detected fluorophore.
The test compound is then incubated for 16 hrs at room temperature with the enzyme and cofactors before starting the IDH2 reaction with the addition of 10 μl of substrate mix containing 8 mM α-KG (final concentration 1.6 mM) in the buffer described above. After a further 1 hour of incubation at room temperature, the reaction is halted and the remaining NADPH measured through conversion of resazurin to resorufin by the addition of 25 μl Stop Mix (36 μg/ml diaphorase enzyme and 60 μM resazurin; in buffer).

[4] = target: IDH1 wt/IDH1 R132C heterodimer (Homo sapiens (Human), UniProt O75874, R132C); test: In vitro assay for IDH1m R132C inhibitors, IDH1 wt/IDH1 R132C heterodimer, NADPH depletion (diaphorase/resazurin); assay type: biochemical; settings: NADPH/NADP
Sequence of IDH1 wt/IDH1 R132C heterodimer (O75874 whole entry R132C): as the sequence (O75874 whole entry R132H) above, with H132C counted along it
Sequence of IDH1 wt/IDH1 R132C heterodimer (O75874 whole entry, stated change not applied): as the sequence (O75874 whole entry R132H) above, with H132R counted along it
Protocol: The following describes the experimental procedures that can be used to obtain data on columns 2 and 4 of Table 4 and column 2 of Table 5.
In the primary reaction, the reduction of α-KG acid to 2-HG is accompanied by a concomitant oxidation of NADPH to NADP. The amount of NADPH remaining at the end of the reaction time is measured in a secondary diaphorase/resazurin reaction in which the NADPH is consumed in a 1:1 molar ratio with the conversion of resazurin to the highly fluorescent resorufin.
The mixture of compound, enzyme, and cofactor is pre-incubated at room temperature for 1 hr prior to the addition of alpha-ketoglutarate. To perform the secondary reaction, 10 uL of 1× buffer containing 36 μg/ml diaphorase and […] resazurin is added to the primary reaction and incubated for a further 5 minutes at 25° C. Florescence is read on a Spectramax platereader at Ex 544 Em 590. Compounds or compound dilutions are prepared in 100% DMSO concentration and diluted 1:50 into the final reaction. […] IC50s are determined.
IDH1 or IDH2 wildtype (wt) and mutant heterodimers are expressed and purified by methods known in the art. For example, IDH1wt/R132m heterodimer is expressed and purified as follows. Co-expression of IDH1wt-his and IDH1R132C-flag is carried out in sf9 insect cells. Cells (25 g) are resuspended in 250 ml of 50 mM Tirs, 500 mM NaCl, pH7.4, at 4° C. with stirring. Cells are disrupted with 4 passes through an M-Y110 Micro fluidizer (Microfluidics) set to 500 psi, and then centrifuged at 22,000 rcf for 20 min at 4° C. The supernatant is harvested and loaded at 15 cm/h on a Histrap FF 5*1 ml column (GE) which is equilibrated with 50 mM Tirs, 500 mM NaCl, pH7.4. Host cell contaminants are removed by washing the column with equilibration buffer followed by equilibration buffer containing 20 mM imidazole and 60 mM imidazole to baseline. IDH1wt-his homodimer and IDH1wt-his/IDH1R132C-flag are eluted by equilibration buffer containing 250 mM imidazole. Fractions eluted by 250 mM imidazole are pooled together and loaded at 15 cm/h onto a column pre-packed with 10 ml ANTI-FLAG® M2 Affinity Gel (Sigma), the column is equilibrated with 50 mM Tris, 500 mM NaCl, pH7.4. After washing with equilibration buffer, IDH1wt-his/IDH1R132C-flag heterodimer is eluted by equilibration buffer containing flag peptide (0.2 mg/ml). Aliquots of IDH1wt-his/IDH1R132C-flag are flash frozen in liquid N2 and stored at −80° C. Same conditions are used for the purification of IDH1wt-his/IDH1R132H-flag.

IDH2 R140Q [5] = target: T1, IDH2 R140Q; test: In vitro assay for IDH2m R140Q inhibitors, cofactor depletion assay; assay type: biochemical; settings: IDH2 R140Q enzyme
Method in brief: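 Remaining cofactor measured fluorimetrically: diaphorase/resazurin Stop Mix […], halting the reaction. Before that, mutant enzyme and compound sat 1 h at RT, then substrate mix (4 μM NADPH, 1.6 mM α-KG) was added for 16 h at RT.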

[6] = tested on: U87MG pLVX-IDH2 R140Q-neo cells; test: U87MG pLVX-IDH2 R140Q-neo cell based assay, 2-HG by LC-MS; settings: Homo sapiens, U-87 MG
[7] = target: IDH1-R132 homodimer enzyme (R132H) (Homo sapiens (Human), UniProt O75874, R132H); test: In vitro assay IDH1-R132H homodimer, NADPH depletion assay; assay type: biochemical
Sequence of IDH1-R132 homodimer enzyme (R132H) (O75874 whole entry R132H): as the sequence (O75874 whole entry R132H) above
Protocol: (§1) The following describes the experimental procedures that can be used to obtain data on columns 3 and 6 of Table 4.
(§2) A test compound is prepared as 10 mM stock in DMSO and diluted to 50× final concentration in DMSO, for a 50 μl reaction mixture. IDH enzyme activity converting alpha-ketoglutarate to 2-hydroxyglutaric acid is measured using a NADPH depletion assay. In the assay the remaining cofactor is measured at the end of the reaction with the addition of a catalytic excess of diaphorase and resazurin, to generate a fluorescent signal in proportion to the amount of NADPH remaining. […] The reaction is started with the addition of 10 μl of Substrate Mix ([…], 5 mM alpha-ketoglutarate, in Assay Buffer) and the mixture is incubated for 90 minutes at room temperature.

IDH1 R132C = IDH1 R132C (Homo sapiens (Human), UniProt O75874, R132C); test: In vitro assay IDH1 R132C homodimer, NADPH depletion assay; assay type: biochemical
Sequence of IDH1 R132C (O75874 whole entry R132C): as the sequence (O75874 whole entry R132H) above, with H132C counted along it
Protocol: as §1, §2
The concentration of NADPH and alpha-ketoglutarate in the Substrate Buffer is 20 μM and 1 mM, respectively.

HT1080 cells = test: Cellular assay for IDH1m R132C inhibitors, 2-HG by LC-MS in HT1080 cells; assay type: cell-based; settings: Homo sapiens, HT-1080
Method in brief: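 HT1080 cells at 5000 cells/well were treated with compound (0.2% DMSO final). After 48 h, 2-HG in the medium was measured by LC-MS. Viability was read by CellTiter-Glo luminescence at 72 h.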

[8] = target: IDH1-R132C homodimer enzyme (Homo sapiens (Human), UniProt O75874, R132C); test: In vitro assay IDH1-R132C homodimer, NADPH depletion assay with NADPH/NADP preincubation; assay type: biochemical; settings: 5 uM NADPH and 28.75 uM NADP, read-out: IDH R132C NADPH/NADP IC50
Sequence of IDH1-R132C homodimer enzyme (O75874 whole entry R132C): as the sequence (O75874 whole entry R132H) above, with H132C counted along it
Protocol: The following describes the experimental procedures that can be used to obtain data on columns 3 and 5 of Table 5.
as §2, with “60” for “90”
The concentration of alpha-ketoglutarate in the Substrate Buffer is 1 mM.

[9] = tested on: Neurosphere cells (TS603); test: Cellular assay for IDH1m R132H inhibitors, 2-HG by LC-MS in neurosphere cells (TS603); assay type: cell-based; settings: 2-HG in media at 48 hours
Method in brief: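 TS603 neurosphere cells in NeuroCult medium were dosed with compound (0.25% DMSO final) at 37 C, 5% CO2. After 48 hours, medium 2-HG was measured by LC-MS. At 72 hours, viability was read by CellTiter-Glo luminescence.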

| Structure (SMILES) | pIC50 [1] | pIC50 [2] | pIC50 (IDH2 R140Q [3]) | pIC50 [4] | pIC50 (IDH2 R140Q [5]) | pIC50 [6] | pIC50 [7] | pIC50 (IDH1 R132C) | pIC50 (HT1080 cells) | pIC50 [8] | pIC50 [9] |
| --- | --- | --- | --- | --- | --- | --- | --- | --- | --- | --- | --- |
| C[C@@H](Nc1nc(N[C@H](C)C2CC2)nc(-c2cccc(C(F)(F)F)n2)n1)C1CC1 [Compound 2] |  |  |  |  | > 7.30 | > 7.30 | > 7.30 | > 7.30 | > 7.30 |  |  |
| CC(C)(O)CNc1nc(Nc2cc(F)cc(F)c2)nc(-c2nccc(C(F)(F)F)n2)n1 [Compound 325] | < 6.00 |  | 7.00 to 7.30 | ≤ 6.00 | > 7.30 | > 7.30 |  |  |  |  |  |
| CC(C)(C)Nc1nc(NC(C)(C)C)nc(-c2cccc(C(F)(F)F)n2)n1 [Compound 4] |  |  |  |  | > 7.30 |  | 7.00 to 7.30 | 7.00 to 7.30 | 7.00 to 7.30 |  |  |
| CC(C)(C)Nc1nc(Nc2ccnc(C(C)(F)F)c2)nc(-c2nccc(C(F)(F)F)n2)n1 [Compound 289] | 6.00 to 7.00 | < 6.00 | 7.00 to 7.30 | ≤ 6.00 | > 7.30 | > 7.30 |  |  |  |  |  |

The remaining lines, values ahead:

| pIC50 [1] | pIC50 [2] | pIC50 (IDH2 R140Q [3]) | pIC50 [4] | pIC50 (IDH2 R140Q [5]) | pIC50 [6] | pIC50 [7] | pIC50 (IDH1 R132C) | pIC50 (HT1080 cells) | pIC50 [8] | pIC50 [9] | Structure (SMILES) |
| --- | --- | --- | --- | --- | --- | --- | --- | --- | --- | --- | --- |
| > 7.30 | 6.00 to 7.00 | 6.00 to 7.00 |  |  |  |  |  |  |  |  | C[C@@H](Nc1nc(NC2C3CC4CC(C3)CC2C4)nc(-c2cccc(C(F)(F)F)n2)n1)C1CC1 (stereo partly drawn) [Compound 234] |
| 6.00 to 7.00 | 6.00 to 7.00 | 6.00 to 7.00 | 6.00 to 7.00 |  |  |  |  |  |  |  | CC(CC#N)Nc1nc(NC(C)CC#N)nc(-c2cccc(Cl)n2)n1 (stereo not drawn) [Compound 271] |
| 7.00 to 7.30 |  | > 7.30 | 6.00 to 7.00 | 6.00 to 7.00 | > 7.30 |  |  |  |  |  | CC(C)(O)CNc1nc(Nc2cccc(Cl)c2)nc(-c2cccc(C(F)(F)F)n2)n1 [Compound 248] |
| > 7.30 | > 7.30 |  |  | > 7.30 | > 7.30 |  |  |  | 6.00 to 7.00 | > 7.30 | N#CC1(c2cc(Nc3nc(N[C@@H]4CCC(F)(F)C4)nc(-c4cccc(C(F)(F)F)n4)n3)ccn2)CC1 [Compound 137] |
| > 7.30 | 6.00 to 7.00 | 7.00 to 7.30 | 6.00 to 7.00 |  |  |  |  |  |  |  | CC(COC(C)C)Nc1nc(N[C@H](C)C2CC2)nc(-c2cccc(C(F)(F)F)n2)n1 (stereo partly drawn) [Compound 241] |
